Four compounds from ChEMBL document CHEMBL3585312, “Anti-MRSA activity of isoplagiochin-type macrocyclic bis(bibenzyl)s is mediated through cell membrane damage” (2015) can be followed below.

Holding throughout (format): functional
Experiment [1] relates to Staphylococcus aureus. Put plainly: Antimicrobial activity against methicillin-resistant Staphylococcus aureus N315 after 24 hrs by broth microdilution method. Particulars: N315, 24 h.
The test system of experiment [2] is Staphylococcus aureus. The experiment in a line: Induction of methicillin-resistant Staphylococcus aureus N315 membrane damage using ethidium bromide assessed as fluorescence intensity at 100 ug/ml by ethidium bromide outflow assay.
For experiment [3], the system named is Staphylococcus aureus. Put plainly: Induction of methicillin-resistant Staphylococcus aureus N315 membrane damage assessed as increase in Na+ concentration at 10 ug/ml after 90 mins by coupled plasma optical emission spectrometry.
In experiment [4] the test system is Staphylococcus aureus. Put plainly: Induction of methicillin-resistant Staphylococcus aureus N315 membrane damage assessed as decrease in K+ concentration at 10 ug/ml after 90 mins by coupled plasma optical emission spectrometry.
The test system of experiment [5] is Staphylococcus aureus. Put plainly: Induction of methicillin-resistant Staphylococcus aureus N315 membrane damage using ethidium bromide assessed as fluorescence intensity at 100 ug/ml by ethidium bromide inflow assay.
Experiment [6] has as its system Staphylococcus aureus. The experiment in a line: Induction of methicillin-resistant Staphylococcus aureus N315 membrane damage using ethidium bromide assessed as fluorescence intensity at 10 ug/ml by ethidium bromide outflow assay.
Experiment [7] deals with Staphylococcus aureus. The experiment in a line: Induction of methicillin-resistant Staphylococcus aureus N315 membrane damage using ethidium bromide assessed as fluorescence intensity at 10 ug/ml by ethidium bromide inflow assay.

≈ marks a conversion by molar mass, not a printed value. Calls of active or inactive are those of the source.

By MIC is commonly meant the smallest concentration in the dilution series that meets the test's criterion for growth inhibition. Higher therefore signals weaker potency.

In turn, `Oc1ccc2c(c1)CCc1ccccc1-c1cccc(c1)CCc1ccc-2c(O)c1` displayed an MIC in the experiment on Staphylococcus aureus [1] of 2 µg/mL (≈ 5.1 µM).

As to `Oc1ccc2c(c1)CCc1ccc(cc1)-c1cccc(c1)CCc1ccc-2c(O)c1`, the outcome in the experiment on Staphylococcus aureus [2], in the experiment on Staphylococcus aureus [3], with Staphylococcus aureus [4] and with Staphylococcus aureus [5] was inactive.

As for `Oc1ccc2c(c1)CCc1cccc(c1)-c1cccc(c1)CCc1ccc-2c(O)c1`, the result with Staphylococcus aureus [6], in the experiment on Staphylococcus aureus [7], with Staphylococcus aureus [3] and with Staphylococcus aureus [4] was Active. Also, the MIC against Staphylococcus aureus [1] was 0.5 µg/mL (≈ 1.27 µM).

On to `Oc1ccc2c(c1)CCc1ccc(cc1)Oc1cccc(c1)CCc1ccc-2c(O)c1`, for which the result in the experiment with Staphylococcus aureus [6] and in the experiment on Staphylococcus aureus [7] was Active.
